Measurements: article PMC10969504 (2024)

System: ENR-Apt 6 (DNA, aptamer) GCGGCTGCTTACGGATAGAAGGCGGATGGAGAAATGAACCGGGGTGGTCCGTTGTCCATCCGTAAAGCCCAAGTC
Assay: graphene oxide fluorescence quenching/recovery, aptamer titrated
Conditions: aptamer 25-200 nM in ultrapure water; 20 μg/mL GO; 250 μM ENR solution added (1:1:1 v/v); apparent

Kd: 35.08 nM
SMILES: CCN1CCN(c2cc3c(cc2F)c(=O)c(C(=O)O)cn3C2CC2)CC1
